According to patent US20130197030A1, “Substituted 1,3-Dioxanes and There Uses” (Evolva Sa, priority 2007, published 2013):

How the values were obtained:
[1] = molecular target: T1, Human Recombinant (E. coli) PPARgamma (Homo sapiens, UniProt P37231); experiment: PPAR gamma binding assay
T1 construct: host or cells: E. coli
T1 sequence (P37231 1-505): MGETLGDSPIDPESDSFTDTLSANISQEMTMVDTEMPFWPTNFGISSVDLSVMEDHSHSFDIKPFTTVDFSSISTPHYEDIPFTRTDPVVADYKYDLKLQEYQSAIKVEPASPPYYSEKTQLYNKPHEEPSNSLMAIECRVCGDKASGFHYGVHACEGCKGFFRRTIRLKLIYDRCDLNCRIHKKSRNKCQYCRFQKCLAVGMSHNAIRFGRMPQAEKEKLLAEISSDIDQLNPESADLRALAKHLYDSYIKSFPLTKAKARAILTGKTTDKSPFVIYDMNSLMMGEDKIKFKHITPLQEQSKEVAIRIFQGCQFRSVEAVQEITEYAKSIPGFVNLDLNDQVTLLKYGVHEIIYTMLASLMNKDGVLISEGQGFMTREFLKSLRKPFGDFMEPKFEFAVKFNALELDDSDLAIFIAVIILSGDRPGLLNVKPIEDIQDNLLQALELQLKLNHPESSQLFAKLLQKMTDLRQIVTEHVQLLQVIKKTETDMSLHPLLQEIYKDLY
Description: Incubation: 120 min. at 4° C.
The results are expressed as a percent of control specific binding ((measured specific binding/control specific binding)×100) obtained in the presence of the test compounds. The IC50 values (concentration causing a half-maximal inhibition of control specific binding) and Hill coefficients (nil) were determined by non-linear regression analysis of the competition curves generated with mean replicate values using Hill equation curve fitting (Y=D+[(A−D)/(1+(C/C50)nH)], where Y=specific binding, D=minimum specific binding, A=maximum specific binding, C=compound concentration, C50=IC50, and nH=slope factor). This analysis was performed using a software developed at Cerep (Hill software) and validated by comparison with data generated by the commercial software SigmaPlot 4.0 for Windows® (© 1997 by SPSS Inc.). The inhibition constants (Ki) were calculated using the Cheng Prusoff equation (Ki=IC50/(1+(L/KD)), where L=concentration of radioligand in the assay, and KD=affinity of the radioligand for the receptor).

Thromboxane synthase = molecular target: T2, Thromboxane synthase (Homo sapiens, UniProt P24557); experiment: Human platelet thromboxane synthase assay; format: biochemical
T2 construct: Human Platelet Thromboxane Synthase Assay; from tissue; host or cells: human platelets
T2 sequence (P24557 1-533): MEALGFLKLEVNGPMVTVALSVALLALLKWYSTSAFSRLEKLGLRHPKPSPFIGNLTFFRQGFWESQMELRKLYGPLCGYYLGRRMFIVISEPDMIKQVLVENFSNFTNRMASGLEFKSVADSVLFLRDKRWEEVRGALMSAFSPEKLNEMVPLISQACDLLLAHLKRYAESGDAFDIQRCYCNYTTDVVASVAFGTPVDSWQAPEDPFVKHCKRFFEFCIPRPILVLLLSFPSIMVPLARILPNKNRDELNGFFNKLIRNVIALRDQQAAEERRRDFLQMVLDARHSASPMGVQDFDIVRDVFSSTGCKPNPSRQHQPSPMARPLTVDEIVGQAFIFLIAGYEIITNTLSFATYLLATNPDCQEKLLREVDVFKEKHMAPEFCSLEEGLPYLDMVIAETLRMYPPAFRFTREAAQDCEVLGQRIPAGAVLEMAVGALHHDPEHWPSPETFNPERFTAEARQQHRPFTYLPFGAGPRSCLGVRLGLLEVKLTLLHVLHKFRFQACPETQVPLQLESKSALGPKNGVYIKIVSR
Description: The compounds were tested for thromboxane synthase inhibition essentially as described by Borsch-Haubold A G, Pasquet S, Watson S P. (1998). Direct inhibition of cyclooxygenase-1 and -2 by the kinase inhibitors SB 203580 and PD 98059. […] 1. Imidazole derivatives. J Med. Chem. (10):1139-48 according to the following:
Pre-incubation time, temp: 15 minutes at 25° C. Incubation time, temp: 3 minutes at 25° C.
Incubation Buffer: 10 mM Tris-HCl, pH 7.4
Quantification Method: ETA quantification of TxB2

O=C(O)CC/C=C\CC1COC(c2coc3ccc(Cl)cc3c2=O)OC1c1ccccc1O (racemic) [Compound 3, (Z)-6-(2-(6-Chloro-4-oxo-4H-chromen-3-yl)-4-(2-hydroxyphenyl)-1,3-dioxan-5-yl)hex-4-enoic acid]
Ki ([1]; [3H]-rosiglitazone 10 nM, Cheng Prusoff, read-out: PPARγ binding Ki): 2.7 µM | IC50 ([1]; [3H]-rosiglitazone 10 nM, read-out: PPARγ binding IC50): 7.4 µM | Binding to PPARgamma (in words) ([1]; compared with Compound A): binds to PPARgamma at least as well as Compound A | IC50 (Thromboxane synthase): 0.056 µM | Inhibition of thromboxane synthase (in words) (Thromboxane synthase): potent inhibitors of thromboxane synthase | inhibition at 5 µM (Thromboxane synthase; at 5 μM): 94%
